Ends that are not written are not given here.
Experiments:
[1] = tested on: E. coli D31 outer membrane; assay: E. coli outer membrane permeabilization (nitrocefin / β-lactamase); format: cell-based, Escherichia coli; settings: E. coli D31, nitrocefin hydrolysis, absorbance 486 nm, up to 90 minutes; peptide serially diluted from 15 μM; average of three replicates
Method: A single colony of E.coli D31 was taken from an LB agar plate and inoculated into fresh LB broth with 100 μg/mL ampicillin (LB-Amp), then place in a shaking incubator at 37 C (225 rpm) for ~ 18 hours. After the incubation period 100 μL was taken from the culture and diluted with 25 mL of fresh LB-Amp. The dilution was further incubated in the same conditions until an OD600 of 0.2 to 0.4 was obtained. Once the specified OD600 was reached the culture was then centrifuged at 2500 rpm for 15 minutes in a tabletop clinical centrifuge. The supernatant was discarded and then an equal amount of PBS (100 mM NaH2PO4, 200 mM NaCl, pH7) was used to resuspend the pellet.
Experimental samples were prepared in a 96-well plate in the order as follows: 10 μL of the six peptide variants that were serially diluted starting a concentration of 15 μM with the exception of the last row (used as a negative control 10 μL of 0.01% acetic acid). 80 μL of the resuspended bacteria culture, and 10 μL of 50 μg/mL nitrocefin in PBS. The absorbance was recorded at 486 nm in 5-minute intervals for a total run time of 90 minutes immediately following the addition of nitrocefin. The antimicrobial agent polymyxin B was used as a positive control. The values presented are the average of three replicates.
As the mechanism of action of the L1 venom peptide is likely a membrane disruptive mechanism, the effect of the hydrophobic substitutions on membrane permeabilization was investigated using E.coli and ovine red blood cells (RBCs). The permeabilization of the E. coli outer membrane was assayed using an enzyme-substrate pair in which the enzyme (β-lactamase) is located in the periplasmic space while the substrate (the chromogenic nitrocefin) is added to the exterior of cells. […] Similarly, the permeabilization of the E. coli inner membrane was assessed using a cytoplasmic enzyme, β-galactosidase, and a chromogenic substrate, ONPG. […]

[2] = tested on: Acinetobacter baumannii ATCC 19606; format: cell-based; settings: highest concentration tested 15 μM
Method: (§1) Six different strains of bacteria were streaked on LB-Miller agar plates from a frozen glycerol stock derived from the original samples shipped from CGSC (Coli Genetic Stock Center, Yale University) or ATCC (American Type Culture Collection) (Escherichia coli D31 CGSC 5165 ([Burman, Nordstrom & Boman, 1968]), Staphylococcus aureus ATCC 35556. Pseudomonas aeruginosa PA-01 ATCC 47085, Acinetobacter baumannii ATCC 19606). For each of the strains a liquid overnight culture was prepared using a single colony into fresh LB broth and placed in a shaking incubator for ~ 18 hours at 37 C at 225 rpm. After the incubation period, a 1:200 dilution was made in fresh LB broth and then used for experimentation. Minimal Inhibitory Concentration (MIC) determinations were performed using mid-log phase bacteria diluted to 5 x 10^5 CFU/mL. Next, 90 μL of this diluted culture was then pipetted into a sterile 96-well plate that contains serially diluted aliquots of the peptide variants to consist of a total volume of 100 μL. This plate was then incubated for 18 hours at 37 C. Bacterial growth was determined by taking an OD600 measurement using a Spectramax M5 multimode plate reader post incubation. Minimal Bactericidal Concentration (MBC) was performed by taking 1 μL of the culture from the MIC plate and then pipetting it on to a fresh LB agar plate. After plating this culture, the plate was then incubated overnight at 37 C. MBC was determined by the growth or the lack of growth from each well on the agar plate.
(§2) The ability of L1 and the hydrophobic variants to act as antimicrobials was investigated using the Minimal Inhibitory Concentration (MIC) and Minimal Bactericidal Concentration (MBC) assays as previously described ([Wiegand, Hilpert & Hancock, 2008]). The MIC is determined as the lowest concentration of peptide required to inhibit bacterial growth in solution, while the MBC is the lowest concentration required to act in a bactericidal mechanism (as opposed to bacteriostatic) and is determined by plating MIC cultures on antimicrobial-free media. Peptides were screened against E. coli, S. aureus, A. baumannii, P. aeruginosa, B. subtilis, and K. pneumoniae.

[3] = tested on: Escherichia coli D31 CGSC 5165; format: cell-based; settings: highest concentration tested 15 μM
Method: as §1, §2

K. pneumoniae = format: cell-based; settings: highest concentration tested 15 μM
Method: as §1, §2

[4] = tested on: Staphylococcus aureus ATCC 35556; format: cell-based; settings: highest concentration tested 15 μM
Method: as §1, §2

[5] = tested on: Sheep red blood cells (RBCs); assay: Hemolysis; format: cell-based; settings: ovine RBCs, 1 hour at 37 C, up to 15μM peptide, absorbance 415 nm, normalised to Triton X-100; average of three replicates
Method: Hemolysis on Sheep red blood cells (RBCs) was used to quantify the destabilization of membranes by leakage of hemoglobin. Sheep blood was obtained through Hemostat Laboratories and stored at 2 – 8 C. A 7 mL aliquot of whole sheep blood was mixed with 7 mL of sterile PBS at pH 7.4. The solution was sedimented via centrifugation for 7 minutes at 2500 rpm. Supernatant was removed and the pellet was resuspended to the original volume of 14 mL. This was repeated three times and the final pellet was resuspended to 14 with PBS. Next, 90 μl of the cell suspension was pipetted into all wells of a conical bottom 96-well plate. […] The absorbance of the plate was taken at 415 nm using a Spectramax M5 multimode plate reader. By using the absorbance of each well compared to the wells without additive and those with Triton-X 100 a percentage of hemolysis was calculated. […]
Hemolytic activity of venom peptides and, more broadly AMPS in general, has often been a first approximation toward assessing potential for further development. […] The peptides we co-incubated with freshly isolated ovine red blood cells and peptide-induced hemolysis was determined by comparing hemoglobin leakage from treated cells to that of untreated cells as well as cells treated with the detergent Triton X-100 as a positive control.

[6] = 1 μL of MIC plate culture on LB agar, overnight at 37 C
[7] = LB broth, 5 x 10^5 CFU/mL, 18 hours at 37 C, OD600

## FFKEFWTKMKGAGKAFFGKFKGFF [L1F]
[1]
  Outer membrane permeabilization: increased permeability of the outer membrane
[2]; [6]
  MBC A. baumannii: 0.938 µM
[2]; [7]
  MIC A. baumannii: 0.47 µM
[3]; [6]
  MBC E. coli: >15 µM
[3]; [7]
  MIC E. coli: 0.94 µM
K. pneumoniae; [6]
  MBC K. pneumoniae: 7.5 µM
K. pneumoniae; [7]
  MIC K. pneumoniae: 1.88 µM
[4]; [6]
  MBC S. aureus: 1.88 µM
[4]; [7]
  MIC S. aureus: 0.94 µM
[5]
  Hemolysis: do not cross the threshold for inducing hemolytic activity

## LLKELWTKMKGAGKALLGKLKGLL [L1L]
[1]
  Outer membrane permeabilization: increased permeability of the outer membrane
[5]
  Hemolysis: do not cross the threshold for inducing hemolytic activity

From paper PMC9114170, “Investigation of the Role of Hydrophobic Amino Acids on the Structure-Activity Relationship in the Antimicrobial Venom Peptide Ponericin L1” (The Journal of membrane biology, 2021)
